Reference: patent publication US20250147039A1, “Compounds for complexation of rare earth elements and/or s-, p-, d- block metals, their coordination compounds, peptide conjugates, method of their preparation and use thereof” (USTAV ORGANICKE CHEMIE A BIOCHEMIE AV CR V.V.I., priority 2021, published 2025)

Key:
[1] = Dissociation of chelates in aq. 6.0M HCl at 80° C. (acid decomplexation kinetic inertness) (Chart 17); type: physicochemical
[2] = Dissociation of chelates in aq. 0.1M HCl at 80° C. (acid decomplexation kinetic inertness) (Chart 19); type: physicochemical
[3] = Dissociation of chelates in aq. 0.1M HCl at RT (acid decomplexation kinetic inertness) (Chart 20); type: physicochemical
[4] = Dissociation of chelates in aq. 1.0M HCl at 80° C. (acid decomplexation kinetic inertness) (Chart 18); type: physicochemical
[5] = Formation of 1,5-cz-[Ln(Lig)] from Lig and Ln^III ions (metal dependent click-zip), MOPS/NaOH buffer pH 7.0, analytical HPLC (Charts 1, 2); conditions: MOPS/NaOH buffer pH 7.0
[6] = Alkali metal dependent formation of 1,5-cz-Lig and 1,4-cz-Lig isomers from Lig at pH 10.2 (Chart 14); type: physicochemical; conditions: B: 1 day at 80° C., Borate/(M^I)2CO3 buffer pH 10.2
[7] = Formation of 1,5-cz-[M(Lig)] from Lig and M^III ions (metal dependent click-zip) (Charts 4, 5); type: physicochemical; conditions: MOPS/NaOH buffer pH 7.0, TD728, TD827 in 50% i-PrOH; for conversion to 1,5-cz-[M(Lig)], Y^III: TD714 sum of two diastereoisomers
[8] = visible analyte free precipitate

## O=C1C[N@@]2CC[N@]3CC[N@@](CC[N@](CC2)Cc2cccc(n2)-c2cnnn2Cc2cc(-c4ccccc4)cc(n2)C3)CC(=O)[O][Lu][O]1 [TD522]
[1]; 1 month
  fraction of intact chelate: 98%
[1]; 1 week
  fraction of intact chelate: 99%
[1]; 1 hour
  fraction of intact chelate: 100%
[1]; 1 day
  fraction of intact chelate: 100%
[2]; 1 month
  fraction of intact chelate: 100%
[2]; 1 week
  fraction of intact chelate: 100%
[2]; 1 hour
  fraction of intact chelate: 100%
[2]; 1 day
  fraction of intact chelate: 100%
[3]; 1 month
  fraction of intact chelate: 100%
[3]; 1 week
  fraction of intact chelate: 100%
[3]; 1 hour
  fraction of intact chelate: 100%
[3]; 1 day
  fraction of intact chelate: 100%
[4]; 1 month
  fraction of intact chelate: 100%
[4]; 1 week
  fraction of intact chelate: 100%
[4]; 1 hour
  fraction of intact chelate: 100%
[4]; 1 day
  fraction of intact chelate: 100%

## C#Cc1cccc(CN2CCN(CP(=O)(O)OCC)CCN(Cc3cccc(CN=[N+]=[N-])n3)CCN(CP(=O)(O)OCC)CC2)n1 [TD582]
[5]; after 1 week at 80° C.
  conversion to 1,5-cz-[Ln(Lig)], Ce^III: 0%
  conversion to 1,5-cz-[Ln(Lig)], Dy^III: 85%
  conversion to 1,5-cz-[Ln(Lig)], Er^III: 74%
  conversion to 1,5-cz-[Ln(Lig)], Eu^III: 87%
  conversion to 1,5-cz-[Ln(Lig)], Gd^III: 86%
  conversion to 1,5-cz-[Ln(Lig)], Ho^III: 79%
  conversion to 1,5-cz-[Ln(Lig)], La^III: 0%
  conversion to 1,5-cz-[Ln(Lig)], Lu^III: 26%
  conversion to 1,5-cz-[Ln(Lig)], Nd^III: 60%
  conversion to 1,5-cz-[Ln(Lig)], Pr^III: 17%
  conversion to 1,5-cz-[Ln(Lig)], Sm^III: 86%
  conversion to 1,5-cz-[Ln(Lig)], Tb^III: 82%
  conversion to 1,5-cz-[Ln(Lig)], Tm^III: 68%
  conversion to 1,5-cz-[Ln(Lig)], Yb^III: 59%
[5]; after 1 hour at 80° C.
  conversion to 1,5-cz-[Ln(Lig)], Ce^III: 0%
  conversion to 1,5-cz-[Ln(Lig)], Dy^III: 18%
  conversion to 1,5-cz-[Ln(Lig)], Er^III: 15%
  conversion to 1,5-cz-[Ln(Lig)], Eu^III: 14%
  conversion to 1,5-cz-[Ln(Lig)], Gd^III: 15%
  conversion to 1,5-cz-[Ln(Lig)], Ho^III: 16%
  conversion to 1,5-cz-[Ln(Lig)], La^III: 0%
  conversion to 1,5-cz-[Ln(Lig)], Lu^III: 5%
  conversion to 1,5-cz-[Ln(Lig)], Nd^III: 6%
  conversion to 1,5-cz-[Ln(Lig)], Pr^III: 5%
  conversion to 1,5-cz-[Ln(Lig)], Sm^III: 12%
  conversion to 1,5-cz-[Ln(Lig)], Tb^III: 18%
  conversion to 1,5-cz-[Ln(Lig)], Tm^III: 14%
  conversion to 1,5-cz-[Ln(Lig)], Yb^III: 12%
[6]
  conversion to 1,4-cz-Lig isomer, Cs^I: 26%
  conversion to 1,4-cz-Lig isomer, K^I: 25%
  conversion to 1,4-cz-Lig isomer, Na^I: 2%
  conversion to 1,4-cz-Lig isomer, Rb^I: 25%
  conversion to 1,5-cz-Lig isomer, Cs^I: 10%
  conversion to 1,5-cz-Lig isomer, K^I: 11%
  conversion to 1,5-cz-Lig isomer, Na^I: 69%
  conversion to 1,5-cz-Lig isomer, Rb^I: 10%
[6]; [8]
  conversion to 1,4-cz-Lig isomer, Li^I: 3%
  conversion to 1,5-cz-Lig isomer, Li^I: 53%
[7]; 1 week at 80° C.
  conversion to 1,5-cz-[M(Lig)], Sc^III: 0%
  conversion to 1,5-cz-[M(Lig)], Y^III: 68%
[7]; 1 hour at 80° C.
  conversion to 1,5-cz-[M(Lig)], Sc^III: 0%
  conversion to 1,5-cz-[M(Lig)], Y^III: 11%

## O=C1C[N@@]2CC[N@]3CC[N@@](CC[N@](CC2)Cc2cccc(n2)-c2cnnn2Cc2cc(-c4ccccc4)cc(n2)C3)CC(=O)[O][Eu][O]1 [TD599]
[1]; 1 month
  fraction of intact chelate: 0%
[1]; 1 week
  fraction of intact chelate: 0%
[1]; 1 hour
  fraction of intact chelate: 0%
[1]; 1 day
  fraction of intact chelate: 0%
[2]; 1 month
  fraction of intact chelate: 21%
[2]; 1 week
  fraction of intact chelate: 83%
[2]; 1 hour
  fraction of intact chelate: 100%
[2]; 1 day
  fraction of intact chelate: 97%
[3]; 1 month
  fraction of intact chelate: 100%
[3]; 1 week
  fraction of intact chelate: 100%
[3]; 1 hour
  fraction of intact chelate: 100%
[3]; 1 day
  fraction of intact chelate: 100%
[4]; 1 month
  fraction of intact chelate: 0%
[4]; 1 week
  fraction of intact chelate: 0%
[4]; 1 hour
  fraction of intact chelate: 92%
[4]; 1 day
  fraction of intact chelate: 10%

## O=C1C[N@@]2CC[N@]3CC[N@@](CC[N@](CC2)Cc2cccc(n2)-c2cnnn2Cc2cc(-c4ccccc4)cc(n2)C3)CC(=O)[O][Tb][O]1 [TD600]
[1]; 1 month
  fraction of intact chelate: 0%
[1]; 1 week
  fraction of intact chelate: 0%
[1]; 1 hour
  fraction of intact chelate: 72%
[1]; 1 day
  fraction of intact chelate: 0%
[2]; 1 month
  fraction of intact chelate: 99%
[2]; 1 week
  fraction of intact chelate: 99%
[2]; 1 hour
  fraction of intact chelate: 100%
[2]; 1 day
  fraction of intact chelate: 100%
[3]; 1 month
  fraction of intact chelate: 100%
[3]; 1 week
  fraction of intact chelate: 100%
[3]; 1 hour
  fraction of intact chelate: 100%
[3]; 1 day
  fraction of intact chelate: 100%
[4]; 1 month
  fraction of intact chelate: 23%
[4]; 1 week
  fraction of intact chelate: 78%
[4]; 1 hour
  fraction of intact chelate: 99%
[4]; 1 day
  fraction of intact chelate: 96%

## O=C1C[N@@]2CC[N@]3CC[N@@](CC[N@](CC2)Cc2cccc(n2)-c2cnnn2Cc2cc(-c4ccccc4)cc(n2)C3)CC(=O)[O][Tm][O]1 [TD601]
[1]; 1 month
  fraction of intact chelate: 69%
[1]; 1 week
  fraction of intact chelate: 92%
[1]; 1 hour
  fraction of intact chelate: 100%
[1]; 1 day
  fraction of intact chelate: 99%
[2]; 1 month
  fraction of intact chelate: 100%
[2]; 1 week
  fraction of intact chelate: 100%
[2]; 1 hour
  fraction of intact chelate: 100%
[2]; 1 day
  fraction of intact chelate: 100%
[3]; 1 month
  fraction of intact chelate: 100%
[3]; 1 week
  fraction of intact chelate: 100%
[3]; 1 hour
  fraction of intact chelate: 100%
[3]; 1 day
  fraction of intact chelate: 100%
[4]; 1 month
  fraction of intact chelate: 100%
[4]; 1 week
  fraction of intact chelate: 100%
[4]; 1 hour
  fraction of intact chelate: 100%
[4]; 1 day
  fraction of intact chelate: 100%

## O=C1CN2CCN3CCN(CCN(CC2)Cc2cccc(n2)-c2cnnn2Cc2cccc(n2)C3)CP(=O)(O)[O][Lu][O]1 [TD734]
[1]; 1 month
  fraction of intact chelate: 95%
[1]; 1 week
  fraction of intact chelate: 98%
[1]; 1 hour
  fraction of intact chelate: 100%
[1]; 1 day
  fraction of intact chelate: 100%

## NCc1nnn2c1-c1cccc(n1)C[N@]1CC[N@]3CC[N@@](CC[N@@](CC1)CC(=O)[O][Lu][O]C(=O)C3)Cc1cc(-c3ccccc3)cc(n1)C2 [TD735]
[1]; 1 month
  fraction of intact chelate: 98%
[1]; 1 week
  fraction of intact chelate: 99%
[1]; 1 hour
  fraction of intact chelate: 100%
[1]; 1 day
  fraction of intact chelate: 100%

## O=C1C[N@@]2CC[N@]3CC[N@@](CC[N@](CC2)Cc2cccc(n2)-c2cnnn2Cc2cc(-c4ccc(C(=O)O)cc4)cc(n2)C3)CC(=O)[O][Lu][O]1 [TD748]
[1]; 1 month
  fraction of intact chelate: 97%
[1]; 1 week
  fraction of intact chelate: 100%
[1]; 1 hour
  fraction of intact chelate: 100%
[1]; 1 day
  fraction of intact chelate: 100%
